In publication PMC11129349, “Synthesis and Evaluation of a Novel PET Radioligand for Imaging Glutaminyl Cyclase Activity as a Biomarker for Detecting Alzheimer’s Disease” (ACS Sensors, 2024):

Target: T1, glutaminyl cyclase (QC; human recombinant glutaminyl peptide cyclotransferase) (Homo sapiens, UniProt Q16769)
T1 construct: gene QPCT
Assay: PGPEP1-coupled fluorescence assay with H-Gln-AMC substrate, recombinant human QC
Type: biochemical

T1 sequence (Q16769 29-361): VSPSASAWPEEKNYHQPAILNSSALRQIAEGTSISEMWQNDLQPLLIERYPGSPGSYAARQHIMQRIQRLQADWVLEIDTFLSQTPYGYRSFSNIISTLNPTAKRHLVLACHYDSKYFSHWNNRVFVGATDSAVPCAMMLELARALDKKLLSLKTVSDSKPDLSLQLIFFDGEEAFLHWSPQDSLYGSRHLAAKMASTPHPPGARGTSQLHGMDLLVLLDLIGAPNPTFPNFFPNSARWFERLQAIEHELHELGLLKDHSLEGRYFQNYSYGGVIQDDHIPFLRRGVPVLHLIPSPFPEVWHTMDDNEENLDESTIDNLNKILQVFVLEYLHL

## O=C1NC[C@H](c2ccc(OCCCF)cc2)N1c1ccc2[nH]cnc2c1 [compound 8, S-[19F]PB0822]
  IC50: 56.3 nM
